pIC50: −log10 of the molar value.

In this assay the target is human PKR1 receptors (Homo sapiens (Human), UniProt Q8TCW9). Kind of assay: PKR1 antagonist assay: block of PK1-mediated intracellular calcium release (FLIPR). It is filed as cell-based. The conditions noted are these: RBL2H3 cells expressing human PKR1; 10 min preincubation; stimulation with PK1 at EC80; calcium fluorescence. The protocol: Prokineticin receptor 1 (PKR1) antagonists may be functionally assessed by measurement of change in intracellular calcium levels induced by Gq mediated increase in inositol triphosphate (IP3) levels. The ability of a compound to block the intracellular release of calcium mediated by PK1 in RBL2H3 cells expressing human PKR1 receptors is determined as a measure of the compound's antagonist activity in vitro.
Approximately 10,000 cells per assay well are seeded in normal culture medium in a 384 well plate (Corning). […]
To test for antagonist activity, test compounds at a final concentration range between 0.32 nM-10 μM (diluted in assay buffer) are added to the assay wells and allowed to incubate for 10 minutes prior to stimulation with PK1. After incubation with test compounds the assay plate is placed in a FLIPR Tetra (Molecular Devices) and PK1 (diluted in assay buffer) is added at the determined EC80 concentration (final). Ligand-dependent changes in intracellular calcium levels are determined by measuring changes in fluorescence of the dye at […] following excitation at 485 nm.

human PKR1 receptors, sequence (Q8TCW9 whole entry): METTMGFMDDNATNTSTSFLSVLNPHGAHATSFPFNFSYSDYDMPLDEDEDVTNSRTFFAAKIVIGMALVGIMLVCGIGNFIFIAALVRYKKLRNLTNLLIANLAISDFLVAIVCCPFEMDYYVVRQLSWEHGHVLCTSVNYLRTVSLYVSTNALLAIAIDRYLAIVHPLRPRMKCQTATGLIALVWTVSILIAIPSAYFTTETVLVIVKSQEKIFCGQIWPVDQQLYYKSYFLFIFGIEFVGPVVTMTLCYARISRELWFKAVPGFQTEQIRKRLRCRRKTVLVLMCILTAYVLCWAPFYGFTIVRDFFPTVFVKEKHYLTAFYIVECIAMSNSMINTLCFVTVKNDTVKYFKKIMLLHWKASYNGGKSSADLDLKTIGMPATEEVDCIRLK

For the compound `Cc1nn(C)c(C)c1S(=O)(=O)N1CCC(N(C)c2ccc(Cl)cc2)CC1` [Example 53], the negative logarithm of the IC50 (pIC50) was 6.05.

These data come from patent publication US9475795B2 (TAKEDA PHARMACEUTICAL COMPANY LIMITED, priority 2012, dated 2016).
